Test systems include DMS 114 small cell lung; DLD-1 colon; KM20L2 colon; DMS 273 small cell lung; SNB-78 CNS; HOP-18 NSCLC; MDA-N; XF 498 CNS; RXF-631 renal.
Assay in all cases: NCI anticancer screen, dose series, 48 h

Where “and” joins values, the source holds several entries; their conditions need not be identical. Equal values may be shown once.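 Results reflect a 48-hour exposure of cells in 96-well plates to compound at five concentrations. GI50: concentration for 50% inhibition of growth. TGI: concentration producing complete growth inhibition.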

For `COc1ccc(C(=O)C(C(=O)C(=O)NC2C3CC4CC(C3)CC2C4)c2ccc(OC)cc2)cc1` (centres undefined), the TGI in the experiment with DMS 114 small cell lung, in the experiment with DLD-1 colon, in the experiment on KM20L2 colon, with DMS 273 small cell lung, in the experiment with SNB-78 CNS and with HOP-18 NSCLC was above 100 µM each time.
In the experiment with MDA-N, `CCCCCCCCCCCCCCCCCC(=O)OCC(COC1OC(CS(=O)(=O)O)C(O)C(O)C1O)OC(=O)CCCCCCCCCCCCCCCCC` (centres undefined) yielded a TGI above 100 µM.
Consider `CCC1CC(C)=CCN1S(=O)(=O)c1ccc(C)cc1` (centres undefined), for which the TGI in the experiment with DMS 114 small cell lung turned out to be 53.7 µM; with KM20L2 colon, 36 µM; in the experiment on DMS 273 small cell lung, 67.9 µM.
Take `CN(C)C1=NC2=S(SC(Nc3ccccc3)=N2)S1` (centres undefined): the TGI in the experiment on DMS 114 small cell lung was 42.6 µM; in the experiment on DLD-1 colon, above 100 µM; with XF 498 CNS, 50.5 µM; with KM20L2 colon, above 100 µM; in the experiment on RXF-631 renal, above 100 µM; with DMS 273 small cell lung, 66 µM. The TGI in the experiment on SNB-78 CNS is above 100 µM; in the experiment with HOP-18 NSCLC, 91.4 µM.
For `NC(=O)Nc1c([N+](=O)[O-])cc(C(F)(F)F)cc1[N+](=O)[O-]`, the TGI in the experiment on XF 498 CNS was above 100 µM; with KM20L2 colon, 80.6 µM; in the experiment on RXF-631 renal, above 100 µM; in the experiment with DMS 273 small cell lung, above 100 µM; in the experiment on SNB-78 CNS, above 100 µM.
`O=C(c1nc2ccc(Cl)cc2[nH]c1=O)C(O)c1ccc2c(c1)OCO2` (centres undefined): the TGI in the experiment with DMS 114 small cell lung is 94.1 µM; with DLD-1 colon it was above 100 µM; in the experiment with XF 498 CNS it was above 100 µM; in the experiment with KM20L2 colon, above 100 µM; in the experiment on RXF-631 renal, above 100 µM; in the experiment with DMS 273 small cell lung it was above 100 µM. The same molecule showed a TGI in the experiment on HOP-18 NSCLC above 100 µM.
With `CCOC(=O)C(=O)Nc1c(C)cccc1C(C)C`, the TGI in the experiment with DMS 114 small cell lung, in the experiment on DLD-1 colon, in the experiment with XF 498 CNS, in the experiment with KM20L2 colon, with RXF-631 renal and in the experiment on DMS 273 small cell lung was above 100 µM in each case. The TGI in the experiment on SNB-78 CNS and with HOP-18 NSCLC was above 100 µM in each case.
For `COc1ccc(C(=O)CC(=O)C(=O)Nc2ccc(C)c(C)c2)cc1`, the TGI in the experiment on DMS 114 small cell lung is above 58.5 µM; in the experiment with DLD-1 colon, above 100 µM; in the experiment on KM20L2 colon, above 100 µM; with RXF-631 renal, above 100 µM; in the experiment with DMS 273 small cell lung, above 100 µM; with SNB-78 CNS, above 100 µM. The molecule further returned a TGI in the experiment on HOP-18 NSCLC above 100 µM.
In the case of `CC1=NC(C(C)C)C(=O)O1` (centres undefined), the TGI in the experiment on DMS 114 small cell lung is 56.2 µM; in the experiment with DLD-1 colon it was above 100 µM; in the experiment with XF 498 CNS, above 100 µM; in the experiment on KM20L2 colon, above 100 µM; in the experiment on RXF-631 renal it was above 100 µM; with DMS 273 small cell lung it was above 100 µM. The TGI with SNB-78 CNS and in the experiment on HOP-18 NSCLC was above 100 µM throughout.
For `O=C1OC(c2ccccc2)=N/C1=C\c1cc(Cl)ccc1Cl`, the TGI in the experiment with DMS 114 small cell lung, in the experiment on DLD-1 colon, with KM20L2 colon, in the experiment on RXF-631 renal, in the experiment with SNB-78 CNS and in the experiment on HOP-18 NSCLC was above 100 µM throughout.
In the experiment with MDA-N, `N#CCCSC(=S)C1CCCC1=N` (centres undefined) came in with a TGI above 100 µM.
`CCOC(=O)NC(=O)c1cn(CCCOC(=O)NCCCCCCNC(=O)OCCCn2cc(C(=O)NC(=O)OCC)c(=O)[nH]c2=O)c(=O)[nH]c1=O`: the TGI is 34.1 µM with DMS 114 small cell lung; above 100 µM with DLD-1 colon; above 100 µM with KM20L2 colon; above 100 µM with DMS 273 small cell lung; above 100 µM in the experiment on SNB-78 CNS; above 100 µM with HOP-18 NSCLC.
Take `CCCc1nc(NC#N)nc(C(=O)NC23CC4CC(CC(C4)C2)C3)c1C`: the TGI in the experiment with DMS 114 small cell lung, in the experiment with DLD-1 colon, in the experiment with KM20L2 colon, with DMS 273 small cell lung, with SNB-78 CNS and in the experiment on HOP-18 NSCLC was above 100 µM each time.
The molecule `O=C(O)CP(=O)(O)O` showed a TGI in the experiment on MDA-N above 100 µM.
Consider `O=NN/C(=C1\Nc2ccc([N+](=O)[O-])cc2NC1=O)C(O)c1ccc([N+](=O)[O-])cc1` (centres undefined), for which the TGI in the experiment with DMS 114 small cell lung, in the experiment with DLD-1 colon, in the experiment on XF 498 CNS, in the experiment with KM20L2 colon, in the experiment with RXF-631 renal and in the experiment with DMS 273 small cell lung was above 100 µM throughout. Moreover, the TGI in the experiment with SNB-78 CNS is above 100 µM.
Turning to `CSc1nc(C)c(Br)c(=O)n1C1OC(COC(C)=O)C(OC(C)=O)C(OC(C)=O)C1OC(C)=O` (centres undefined), the GI50 with DMS 114 small cell lung was > 100 µM and 25.5 µM; in the experiment on SNB-78 CNS it was 17 µM and 63.6 µM. Also, the TGI in the experiment on DMS 114 small cell lung was > 100 µM and 81 µM; in the experiment with MDA-N, above 100 µM; with DLD-1 colon, above 100 µM; in the experiment on XF 498 CNS, 43.6 µM; with KM20L2 colon it was above 100 µM; in the experiment with DMS 273 small cell lung, above 100 µM. In addition, the TGI in the experiment with SNB-78 CNS was 64.8 µM and > 100 µM; in the experiment with HOP-18 NSCLC, above 100 µM.
With `COC(=O)CS(=O)c1ccccc1` (centres undefined), the TGI was 56.5 µM in the experiment on DMS 114 small cell lung; above 100 µM in the experiment on DLD-1 colon; above 100 µM in the experiment with XF 498 CNS; 84.4 µM in the experiment on DMS 273 small cell lung; above 100 µM with SNB-78 CNS.
As to `CCCC(=O)Nc1ccc2c(c1)CN1C(=O)c3ccccc3C1=N2`, the TGI in the experiment with MDA-N is above 100 µM.
Turning to `CCCCCCCCCCCCCCCCCC(=O)OCC(C[As](=O)(O)O)OC(=O)CCCCCCCCCCCCCCCCC` (centres undefined), the TGI in the experiment on DMS 114 small cell lung is 34.3 µM; with DLD-1 colon, above 100 µM; in the experiment with XF 498 CNS it was 53 µM; in the experiment with KM20L2 colon it was above 100 µM; in the experiment on RXF-631 renal, above 100 µM; in the experiment on DMS 273 small cell lung, above 100 µM. In addition, the TGI in the experiment on SNB-78 CNS and in the experiment on HOP-18 NSCLC was above 100 µM in each case.
`O=C(O)c1cccc2cccc(C(=O)O)c12.[Hg]`: the GI50 with DMS 114 small cell lung is 3.8 µM; in the experiment with DLD-1 colon it was 8.42 µM; in the experiment on KM20L2 colon, above 100 µM; in the experiment on DMS 273 small cell lung, 15.4 µM; in the experiment with HOP-18 NSCLC, 18.6 µM. In addition, the TGI with DMS 114 small cell lung is 21.5 µM; in the experiment on DLD-1 colon it was 23 µM; in the experiment with KM20L2 colon it was above 100 µM; in the experiment on DMS 273 small cell lung it was 31.4 µM; in the experiment on HOP-18 NSCLC it was 35.3 µM.

The record behind these values is PubChem BioAssay (NCI).
